The values that follow come from ChEMBL document CHEMBL3507680, “University of Dundee, Gates Library screen for HepG2 cell viability”.

The series in a line: Human HepG2 cell viability assay in 384 well format. Type of series: toxicity, cell-based. Details: dose 125 nL, time 70.5 hour; concentration not given beside the values. The conditions noted are these: HepG2 cells, read-out: Inhibition.
`CN(C)c1cc2c(nn1)CCN(C(=O)Cc1ccc3c(c1)CCC3)C2`: the cytotoxicity at 70.5 h is -1.75%.

With `Cc1nc(C)n(CC2CCCN(CC(=O)Nc3nncs3)C2)n1` (stereo not drawn), the cytotoxicity at 70.5 h was -6.97%.

Consider `O=S(=O)(Cc1ccccc1CN1CC[C@H](CO)[C@H](O)C1)c1ccccc1`, for which the cytotoxicity at 70.5 h was -7.73%.

In the case of `O=C(Nc1cc(Cl)ccn1)c1nc(N2CCCC2)ncc1Cl`, the cytotoxicity at 70.5 h was -2.78%.

On to `Cc1cc(C)nc(Nc2nccnc2C2CCCN(CCO)C2)n1` (stereo not drawn), for which the cytotoxicity at 70.5 h was -3.54%.

With `Cc1nc(CN2CCC(Oc3ccc(F)cc3C)(C(=O)O)CC2)co1`, the cytotoxicity at 70.5 h was -2.54%.

On to `O=C(c1ccco1)N1CC[C@@H](N2CCOCC2)[C@@H]1Cc1ccncc1`, for which the cytotoxicity at 70.5 h is -4.82%.

For the molecule `Cc1ccc(OCC2CCCN(C(=O)Cn3ccccc3=O)C2)cc1` (stereo not drawn), the cytotoxicity at 70.5 h was determined as 25%.

On to `O=C(Cc1cccc(O)c1)NCCCNC(=O)c1cccc(F)c1`, for which the cytotoxicity at 70.5 h is -5.97%.

Turning to `CC(Nc1ccn(Cc2ccccn2)n1)C(=O)NC(C)(C)C` (stereo not drawn), the cytotoxicity at 70.5 h was -7.21%.

Take `O=C1CSC(c2ccncc2)c2c(n(C3CCOCC3)[nH]c2=O)N1` (stereo not drawn): the cytotoxicity at 70.5 h was 36.4%.

For `CNC(=O)c1ccc(C2CN(C(=O)c3cnn(C)c3)CCO2)nc1` (stereo not drawn), the cytotoxicity at 70.5 h was -4.81%.

Consider `Cc1cccnc1NCCNC(=O)[C@H]1CNC[C@@H](C(=O)N2CCCC2)C1`, for which the cytotoxicity at 70.5 h is 0.731%.

With `CCSc1cncc(N2CCC(C(=O)Nc3ccccn3)CC2)n1`, the cytotoxicity at 70.5 h is -3.08%.

For `CN(CCCNC(=O)N1CCCC1c1ccsc1)c1ccccn1` (stereo not drawn), the cytotoxicity at 70.5 h came to 16.8%.

For the molecule `Cc1oc(-c2ccsc2)nc1CN1CC[C@@H]2CCCC[C@H]2C1`, the cytotoxicity at 70.5 h turned out to be 13.8%.

`CNC(=O)[C@H]1C[C@@H]2CN(C(=O)c3occc3C)C[C@@H]2N1S(C)(=O)=O`: the cytotoxicity at 70.5 h is -5.67%.

For `CC(C)(C)NC(=O)CN1CCCN(c2ccc(C#N)cn2)CC1`, the cytotoxicity at 70.5 h was -6.98%.

As to `CS(=O)(=O)c1ccc2c(c1)N(C(=O)Cc1cccc(F)c1)CCC2`, the cytotoxicity at 70.5 h was -0.9%.

As for `CCc1cnc(N)nc1NCCC(=O)NC1CCCCC1`, the cytotoxicity at 70.5 h was -25.4%.

`CNc1nc(C)c(C(=O)N2C[C@@H](C(=O)O)[C@H](C3CC3)C2)s1`: the cytotoxicity at 70.5 h was -6.65%.

`O=C(CCn1ncc2c(Cl)cccc21)NCCCO`: the cytotoxicity at 70.5 h was -5.48%.

With `O=C(N1CCCC1)N1CCC2(CC1)COCCN(Cc1cccnc1)C2`, the cytotoxicity at 70.5 h is -4.16%.

With `O=C(c1cnc(C2CC2)nc1)N1CCC(N2CCC(O)CC2)CC1`, the cytotoxicity at 70.5 h came out at 14.2%.

For the molecule `Fc1cnc(N2CCn3c(CN4CCCC4)nnc3C2)nc1`, the cytotoxicity at 70.5 h was -9.62%.

On to `Cc1nccn1CCCC(=O)N1CCC2(CCC(=O)N(C(C)C)C2)CC1`, for which the cytotoxicity at 70.5 h was -4.22%.

Consider `Cc1ccc(-c2cc(N)c(=O)n(CC(=O)NC3CCCC3)n2)s1`, for which the cytotoxicity at 70.5 h stood at 13%.

Take `Cc1nc(CN2CCCN(C(=O)c3cccn3C)CC2)cs1`: the cytotoxicity at 70.5 h is 1.17%.

With `O=C([C@H]1C[C@H]2OCC[C@H]2N(Cc2ccco2)C1)N1CCCO1`, the cytotoxicity at 70.5 h is -14.8%.

Consider `Cc1cc(C(=O)NC2CCN(CC(N)=O)CC2)nn1C(C)(C)C`, for which the cytotoxicity at 70.5 h is -18.9%.

Regarding `COCc1nn(CC2CC2)c2c1CN(Cc1cccs1)CC2`, the cytotoxicity at 70.5 h was -8.23%.

`CCCc1cc(=O)[nH]c(-c2cccc(CN3CCN4CCCC4C3)c2)n1` (stereo not drawn): the cytotoxicity at 70.5 h was -6.97%.

For `COc1ccccc1CNC(=O)COc1ccc2c(c1)OCC2O` (stereo not drawn), the cytotoxicity at 70.5 h is -5.21%.

On to `Cc1nc(O)c2c(n1)CCN(Cc1cc(C)sc1C)CC2`, for which the cytotoxicity at 70.5 h turned out to be 23.6%.

For the molecule `CC(=O)Nc1nc(C(=O)N2CCCC(n3nc(C)nc3C)C2)cs1` (stereo not drawn), the cytotoxicity at 70.5 h was -10.7%.

Consider `Cc1cccc(CN2CCN(C(=O)c3cnc(C)[nH]c3=O)CC2)c1`, for which the cytotoxicity at 70.5 h was determined as 12.7%.

In the case of `CN1CCC(N(Cc2ccccc2)C(=O)c2nccn3ccnc23)CC1`, the cytotoxicity at 70.5 h was -7.08%.

As to `Cc1ccc(OCCNc2cccc(C(=O)N3CCOCC3)c2)cc1`, the cytotoxicity at 70.5 h stood at 23.6%.

As for `Cc1cc2ccccc2n1CCC(=O)N1CCCC1Cn1cccn1` (stereo not drawn), the cytotoxicity at 70.5 h was -9.07%.

Regarding `CCc1ncc2c(n1)CN(CC(=O)NCCOc1ccccc1)CC2`, the cytotoxicity at 70.5 h is -5.27%.

Turning to `Cc1ccc(N(C)S(=O)(=O)c2cc(C(=O)O)cs2)c(C)c1`, the cytotoxicity at 70.5 h is 0.683%.

Regarding `COc1cc(CNCc2ccnc(N3CCOCC3)c2)cc(Cl)c1OC`, the cytotoxicity at 70.5 h is -18.7%.

For `NC(=O)CN1CC(O)c2ccccc2S1(=O)=O` (stereo not drawn), the cytotoxicity at 70.5 h is -9.19%.

Take `COc1ccc(C(C(=O)O)N(C)CCN2CCOCC2)c(C)c1` (stereo not drawn): the cytotoxicity at 70.5 h was -11.3%.

`O=C(Nc1cccnc1)c1noc2c1CN(S(=O)(=O)C1CC1)CC2`: the cytotoxicity at 70.5 h was -12.1%.

For `O=S(=O)(c1ccc(F)cc1F)N1CCCCC1c1nnc2n1CCCC2` (stereo not drawn), the cytotoxicity at 70.5 h was -12.7%.

In the case of `COCC1CN(c2ccc(C)nn2)Cc2cnn(C)c21` (stereo not drawn), the cytotoxicity at 70.5 h is -7.14%.

As for `COc1ccc(NC(=O)C2CC(=O)n3cnnc3S2)cc1` (stereo not drawn), the cytotoxicity at 70.5 h turned out to be 2.23%.

As to `Cc1oc(C)c(C(=O)NCc2cccnc2)c1C`, the cytotoxicity at 70.5 h is -14.1%.

For `Cc1ccc(Oc2ccc(NC(=O)NCC3CCOC3)cn2)cc1C` (stereo not drawn), the cytotoxicity at 70.5 h came out at 4.23%.

`Cc1c[nH]nc1C1CCN(C(=O)C2CCC2)CC1`: the cytotoxicity at 70.5 h is -8.63%.

For `CC(C)OCCCN(Cc1ccncc1)Cc1cccc(F)c1F`, the cytotoxicity at 70.5 h is 22.3%.

Turning to `CC(=O)N1CCC(NC2(Cc3cc(CC(C)C)on3)COC2)CC1`, the cytotoxicity at 70.5 h was 3.96%.

As for `COc1ccc(CCNC(=O)NCC(O)c2cccc(F)c2)cc1` (stereo not drawn), the cytotoxicity at 70.5 h was 8.74%.

As to `O=C(CN1CCOCC1CC(=O)c1ccco1)NCc1ccccn1` (stereo not drawn), the cytotoxicity at 70.5 h worked out at 2.07%.

For `O=C(c1ccc2c(c1)OCO2)N1C[C@@H](CN2CCCCC2)[C@@H](CO)C1`, the cytotoxicity at 70.5 h was -0.201%.

Turning to `O=C(O)c1nnn(-c2ccc(C(F)(F)F)cc2)c1-c1ccncc1`, the cytotoxicity at 70.5 h is -26.2%.

Turning to `CC(c1nc(C2CC2)no1)N1CCc2c(ncn2C2CC2)C1` (stereo not drawn), the cytotoxicity at 70.5 h is -7.1%.

On to `CC(C)CS(=O)(=O)CC(=O)NC(C)c1nnc2n1CCC2` (stereo not drawn), for which the cytotoxicity at 70.5 h was -2.61%.

For `CCn1ccnc1CN1CCC(CCC(=O)Nc2ccccc2Cl)CC1`, the cytotoxicity at 70.5 h came out at 11.7%.

Regarding `CC(C)(C)c1nc(CN(Cc2ccccc2Cl)C2CCCC2)no1`, the cytotoxicity at 70.5 h was -2.25%.

Regarding `CN(CC(=O)NC(C)(C#N)C1CC1)Cc1nc2ccccc2n1C` (stereo not drawn), the cytotoxicity at 70.5 h was determined as 4.49%.

For the molecule `CC(C)c1ncc2c(n1)CN(Cc1nc(-c3ccco3)no1)CC2`, the cytotoxicity at 70.5 h was -8.2%.

In the case of `CCOC(=O)CNC(=O)NCc1cc(C)n(-c2ccc(OC)cc2)c1C`, the cytotoxicity at 70.5 h was -22.5%.

Regarding `CCc1nc(NC(=O)NCCc2cccc(C)n2)nn1C`, the cytotoxicity at 70.5 h was -12.7%.

Turning to `CCc1ccc(-n2nnc(C(=O)O)c2-c2ccncc2)cc1`, the cytotoxicity at 70.5 h was -4.02%.

As for `Cc1noc(C)c1CC(=O)OCc1nc(N)c2ccccc2n1`, the cytotoxicity at 70.5 h is -3%.

With `Cc1cnc2c(C(=O)N(C)Cc3cc(C4CC4)[nH]n3)cnn2c1`, the cytotoxicity at 70.5 h was found to be 31.8%.

As to `COc1cc(C2(C(=O)NCCn3ccnc3)CCCC2)ccc1C`, the cytotoxicity at 70.5 h is -6.48%.

For `COc1ccc(C(=O)NC2COc3ccccc3C2)cc1OCC(=O)O` (stereo not drawn), the cytotoxicity at 70.5 h is -4.51%.

`COCC(NC(=O)c1ccoc1)c1ccc(C)o1` (stereo not drawn): the cytotoxicity at 70.5 h was -2.43%.

For the molecule `CCc1[nH]ncc1C(=O)N1CCCC(n2nc(C)cc2C)C1` (stereo not drawn), the cytotoxicity at 70.5 h was -10.3%.

`Cc1ccc(CN2C[C@@H]3CCCO[C@@H]3[C@H](N(C)Cc3ccco3)C2)o1`: the cytotoxicity at 70.5 h is -9.18%.

For the molecule `CCc1n[nH]c(SCC(=O)N2CCc3[nH]nc(C4CCC4)c3C2)n1`, the cytotoxicity at 70.5 h is -0.161%.

As to `COc1cccc(S(=O)(=O)NC(=O)COC2CCCCC2)c1`, the cytotoxicity at 70.5 h was 0.508%.

As for `Cc1cc(CN(C)C(=O)CN2CCCC2=O)no1`, the cytotoxicity at 70.5 h is -15.2%.

For the molecule `O=C(O)c1ccccc1-n1cc(CN2CCOC(c3cc[nH]n3)C2)cn1` (stereo not drawn), the cytotoxicity at 70.5 h is -12.9%.

In the case of `CN(CCN1CCCCCC1)C(=O)c1cc(CN2CCC(O)CC2)on1`, the cytotoxicity at 70.5 h is -0.511%.

For the molecule `Cc1ccc(C(C)(O)CNC(=O)c2scnc2C)o1` (stereo not drawn), the cytotoxicity at 70.5 h is -3.68%.

`CCN(C)c1ccc(CNC(=O)c2ccc(NC(N)=O)cc2)cc1F`: the cytotoxicity at 70.5 h is -17.6%.

Take `NC(=O)NCC1CCCCN1Cc1nc(-c2ccco2)no1` (stereo not drawn): the cytotoxicity at 70.5 h is -9.61%.

Regarding `COCc1nc(C(=O)OCC2CCN(c3ccccc3)C2)cs1` (stereo not drawn), the cytotoxicity at 70.5 h is -88.7%.

As for `Cc1ccc(-c2ccnc(N(C)CC3CCCO3)n2)c(C)n1` (stereo not drawn), the cytotoxicity at 70.5 h was -6.23%.

With `COc1ccc(-c2n[nH]c(C)c2CC(=O)NCCN2CCOCC2)cc1`, the cytotoxicity at 70.5 h is -2.78%.

As to `CC(C)c1nc(CN2CCN(C(=O)OC(C)(C)C)C(C)C2)no1` (stereo not drawn), the cytotoxicity at 70.5 h is -2.12%.

As to `CCOc1ccc(CN2CCN(CCOC)[C@@H]3CS(=O)(=O)C[C@@H]32)cc1`, the cytotoxicity at 70.5 h stood at 5.04%.

For the molecule `COC1CCCN(C2CCN(c3cccc(-c4csc(C)n4)c3)CC2)C1` (stereo not drawn), the cytotoxicity at 70.5 h was -1.69%.

Regarding `Cc1cc(Cn2cc(C#N)c(=O)c3ccccc32)on1`, the cytotoxicity at 70.5 h amounted to 8.12%.

For the molecule `CC(=O)Nc1ccc(CCC2(NC(=O)C3CCCO3)CCCCC2)cn1` (stereo not drawn), the cytotoxicity at 70.5 h was -0.834%.

`CC(O)CN1CCC(CNCc2ccc(C(N)=O)cc2)CC1` (stereo not drawn): the cytotoxicity at 70.5 h was -0.474%.

On to `O=C(Nc1ccncc1)C1=NN(c2ccccc2)C(=O)CN1`, for which the cytotoxicity at 70.5 h was -16.1%.

Take `C[C@H]1C[C@H]2CN(Cc3ccccn3)CC[C@@H]2O1`: the cytotoxicity at 70.5 h was -3.43%.

As for `CN1C[C@@H]2CN(C(=O)C3CCOC3)C[C@@H]2C1=O` (stereo partly drawn), the cytotoxicity at 70.5 h amounted to 9.81%.

As to `C1CC(c2noc(C3CC3)n2)CN(CCOCC2CC2)C1` (stereo not drawn), the cytotoxicity at 70.5 h turned out to be 7.19%.

Regarding `Cc1cc(-n2cccn2)ccc1CN1C[C@@H](CN(C)C)[C@@H](CO)C1`, the cytotoxicity at 70.5 h was -8.41%.

For `CC(CO)NC(=O)c1ccc(NCc2ccccc2)cc1` (stereo not drawn), the cytotoxicity at 70.5 h is -7%.

On to `CC(C)CS(=O)(=O)Nc1ccc([C@H]2OCC(=O)N[C@@H]2CO)cc1`, for which the cytotoxicity at 70.5 h was 0.34%.

For `CSCCCNC(=O)c1coc(Cn2cnc3ccccc32)n1`, the cytotoxicity at 70.5 h was -6.75%.
